The experiment can be described thus: Activation of p75NTR in mouse hippocampal neurons assessed as increase in cell survival after 48 hrs by MTT assay. Background: Tetrazolium dyes change colour on reduction, which living cells bring about.

A word on the EC50: it is the concentration at which the effect is half-maximal. Take `CCC(C)C(N)C(=O)NCCN1CCOCC1` (stereo unspecified): the EC50 came to 20 nM.

Values taken from BindingDB's records for doi:10.1016/j.bmc.2016.08.020 (University of British Columbia, 2016).
